System: LhCE
Test: UV-Vis Michaelis-Menten hydrolysis assay
Format: biochemical, Lactobacillus helveticus
Conditions: 50 mM HEPES pH 8, 21 °C, 10 nM enzyme

Row | Km (substrate stock in 5% ethanol) [µM] | Km [µM] | SMILES
1 | 386 ± 46 |  | CCOC(=O)/C=C/c1ccc(O)c(OC)c1 [ethyl ferulate]
2 |  | 147 ± 41 | O=C(/C=C/c1ccc(O)c(O)c1)O[C@@H]1C[C@](O)(C(=O)O)C[C@@H](O)[C@H]1O [chlorogenic acid]
